Consider 1 molecule from US20110319484A1, “NEUROPROTECTIVE COMPOUNDS” (Parque Tecnologico de Ciencias de la Salud, priority 2009, published 2011).

For the assay, the system named is caspase 3/7 activation in SK-N-MC cells. Nature of the assay: Inhibition of camptothecin-induced caspase 3/7 activation (Apo-ONE kit). In kind it is cell-based, human. The conditions noted are these: Homo sapiens, 24 h pretreatment at 100 μg/ml, then camptothecin 50 μM 6 h. As for the experimental part:
To that end, the inhibition caused by (1S,3R,7S,8S,8aR)-1,2,3,7,8,8a-hexahydro-3,7-dimethyl-8-[2-[(2R,4R)-tetrahydro-4-hydroxy-6-oxo-2H-pyran-2-yl]ethyl-1-naphthalenyl 2,2-dimethylpropanoate (NST0005) of apoptosis caused by the treatment with camptothecin (Campt) on the SK-N-MC cells in culture was analyzed following the working conditions specified in section 3.1. Apoptosis can be quantified by measuring effector caspase activation. Caspases (proteins belonging to the cysteine-protease group) mediate the cleavage of a series of proteins triggering the signaling cascade which leads cells to apoptosis. […] The active cellular caspases 3 or 7 cause the cleavage of the substrate, emitting fluorescence which is read by means of a fluorometer.
The effect of the pretreatment of the NST0005 compound at 40 and 100 μg/ml on caspase 3/7 activation caused by 50 μM of camptothecin (Campt) in the SK-N-MC cells was thus analyzed. […]
The cells were incubated (at 37° C. and 5% CO2) with these treatments for 6 h, after which time the lysis buffer and the substrate rhodamine 110 were added at the concentrations specified by the manufacturer; they were incubated at room temperature for 30 minutes and the cells were then frozen at −20° C. overnight. They were thawed the next day and the reading of the plate was taken in a fluorometer at 499 nm for excitation and 521 nm for emission.

In general, inhibition refers to the change of the read-out against control, counted positive when it falls. In the case of `C[C@H]1C=C2C=C[C@H](C)[C@H](CC[C@@H]3C[C@@H](O)CC(=O)O3)[C@H]2[C@@H](OC(=O)C(C)(C)C)C1` [NST0005], the inhibition at 100 µg/mL is 33%.
